Broadly, the IC50 is the concentration that inhibits the measured activity by half. The term Km denotes the concentration of substrate that gives half-maximal velocity.

Assay [1] addresses T1, PpAChE5 (Pardosa pseudoannulata, UniProt A0A1B1FIV8).
T1 sequence (A0A1B1FIV8 25-553): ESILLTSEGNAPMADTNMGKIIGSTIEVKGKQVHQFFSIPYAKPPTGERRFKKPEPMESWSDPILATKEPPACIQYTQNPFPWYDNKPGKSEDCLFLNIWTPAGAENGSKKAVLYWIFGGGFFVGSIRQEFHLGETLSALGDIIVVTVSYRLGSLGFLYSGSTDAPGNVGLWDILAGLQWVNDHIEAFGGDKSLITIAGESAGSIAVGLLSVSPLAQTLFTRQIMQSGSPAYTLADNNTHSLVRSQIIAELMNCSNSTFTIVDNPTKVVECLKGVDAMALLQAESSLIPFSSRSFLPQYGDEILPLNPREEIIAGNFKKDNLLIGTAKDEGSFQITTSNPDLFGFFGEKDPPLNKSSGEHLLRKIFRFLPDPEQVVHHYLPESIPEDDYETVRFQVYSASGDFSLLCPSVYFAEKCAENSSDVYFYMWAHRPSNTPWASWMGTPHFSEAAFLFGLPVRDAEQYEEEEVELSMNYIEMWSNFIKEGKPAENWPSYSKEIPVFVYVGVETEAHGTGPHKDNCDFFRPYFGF
Description: Inhibition of enzyme activity (IC50) of PpAChE5. The format is biochemical. Conditions: for IC50: 10 min preincubation with inhibitor. An excerpt: (§1) As described previously, complete coding sequence of the new putative ace gene was subcloned into the expression vector pFastBac-HTa with its specific primers (Table 5) and verified by nucleotide sequencing. The vector with an enhanced green fluorescent protein (eGFP, GenBank accession number: AAK15492), which constructed previously in our laboratory was as a control. Using baculovirus-insect expression system, Sf9 cells which infected by the recombinant Bacmid DNAs were used for protein expression, and the baculovirus culture supernatants were collected as the crude enzyme. The culture supernatants of non-infectious Sf9 cells were used as the negative control.
(§2) The methods for enzyme biochemical properties assaying were performed as described previously. Fifty microliters of enzyme, 100 μL of DTNB (75 μM) and 100 μL of substrate at different concentrations were mixed in a 96-well microplate for the enzyme activities detecting. Using Molecular Devices Thermomax Kinetic Microplate Reader, the mixed solutions were monitored for 20 min in 30 s intervals at 405 nm and three replications were used to calculate the mean level of enzyme activity. Different pH of the mixed-reaction solutions were employed for detecting enzyme optimal pH condition. Under the optimal pH of enzyme, the Michaelis–Menten constant value (KM) and maximal reaction velocity (Vmax) for each substrate were determined by fitting the velocity (ν) and substrate concentration ([S], 20–2000 μM) data to ν = Vmax [S]/(KM + [S]) using Prism 5.0 (GraphPad Software, La Jolla, CA, USA). Protein concentration was measured by the Protein-dye Binding Method according to the Micro BCA Protein Assay Kit (ThermoFisher, Waltham, MA, USA) instruction.
To determine IC50 values of enzyme to different inhibitors, the enzyme was first incubated with an inhibitor at various concentrations ([I]) for 10 min. The residual enzyme activity (in reference to a mixture of the enzyme and buffer) was determined as above and plotted against −log10[I]. The IC50 value for each inhibitor was determined from nonlinear regression analysis of activity and −log10[I] data using Prism 5.0 (GraphPad Software, La Jolla, CA, USA). The bimolecular rate constant (ki) was determined by enzyme reaction premixed with various concentrations of an inhibitor and was fitted using Prism 5.0.

Assay [2] relates to PpAChE1. Conditions: cited from earlier work.
Assay [3] relates to PpAChE2. Conditions: cited from earlier work.
Assay [4] relates to PpAChE3. Conditions: cited from earlier work.
Assay [5] concerns PpAChE4. The following applies: cited from earlier work.
Assay [6] deals with T1, PpAChE5. Put plainly: Substrate hydrolysis kinetics of recombinant PpAChE5. The format is biochemical. Conditions: for Km / Vmax: substrate hydrolysis by PpAChE5, optimal pH.
Text: as §1, §2

Assay [7] has as its system PpAChE1. The following applies: cited from earlier work; for Km / Vmax: substrate hydrolysis by PpAChE1.
The test system of assay [8] is PpAChE2. Conditions: cited from earlier work; for Km / Vmax: substrate hydrolysis by PpAChE2.
Assay [9] has as its system PpAChE3. Conditions: cited from earlier work; for Km / Vmax: substrate hydrolysis by PpAChE3.
Assay [10] deals with PpAChE4. Conditions: cited from earlier work; for Km / Vmax: substrate hydrolysis by PpAChE4.
Assay [11] has as its target T1, PpAChE5. Description: Inhibition kinetics (bimolecular rate constant ki) of PpAChE5. The format is biochemical. Conditions: ATC hydrolysis.
Text: as §1
The methods for enzyme biochemical properties assaying were performed as described previously. Fifty microliters of enzyme, 100 μL of DTNB (75 μM) and 100 μL of substrate at different concentrations were mixed in a 96-well microplate for the enzyme activities detecting. Using Molecular Devices Thermomax Kinetic Microplate Reader, the mixed solutions were monitored for 20 min in 30 s intervals at 405 nm and three replications were used to calculate the mean level of enzyme activity. […] Protein concentration was measured by the Protein-dye Binding Method according to the Micro BCA Protein Assay Kit (ThermoFisher, Waltham, MA, USA) instruction. […]

Each structure is given as a SMILES string. Values joined by “and” are separate entries in the source; they are usually repeats but may differ in a detail not shown here. Equal values may be shown once. Read-outs that look alike come from different tables or passages of the source. Some results are limits rather than exact numbers.

For `CC(C)NP(=O)(NC(C)C)OP(=O)(NC(C)C)NC(C)C` [ISO-OMPA, tetraisopropyl pyrophosphoramide], on PpAChE5 [1] (PpAChE5, BTC hydrolysis, in words), the “inhibition against BTC hydrolysis” value is listed as “very weak inhibition”. Moreover, the IC50 was greater than 100000 nM at PpAChE5 [1] (PpAChE5, on BTC hydrolysis); greater than 100000 nM with PpAChE1 [2] (PpAChE1, on BTC hydrolysis); 21700 ± 3260 nM with PpAChE2 [3] (PpAChE2, on BTC hydrolysis); greater than 100000 nM with PpAChE3 [4] (PpAChE3, on BTC hydrolysis); greater than 100000 nM in the assay on PpAChE4 [5] (PpAChE4, on BTC hydrolysis).

Take `C=CC[N+](C)(C)c1ccc(CCC(=O)CCc2ccc([N+](C)(C)CC=C)cc2)cc1.[Br-].[Br-]` [BW284C51, 1,5-bis(4-allyldimethylammoniumphenyl)-pentan-3-one dibromide]: the “inhibition on ATC hydrolysis activity of PpAChE5” value on PpAChE5 [1] (in words) is “strong inhibition”. Besides, the IC50 on PpAChE5 [1] (PpAChE5, on ATC hydrolysis) is 471 ± 69.3 nM; with PpAChE1 [2] (PpAChE1, on ATC hydrolysis), 51.2 ± 7.6 nM; in the assay on PpAChE2 [3] (PpAChE2, on ATC hydrolysis) it was 2540 ± 214 nM; in the assay on PpAChE3 [4] (PpAChE3, on ATC hydrolysis), 36.8 ± 5.3 nM; in the assay on PpAChE4 [5] (PpAChE4, on ATC hydrolysis) it was 73.6 ± 10.5 nM.

Take `CCC(=O)SCC[N+](C)(C)C.[I-]` [PTC, propionylthiocholine iodide]: the Km at PpAChE5 [6] is 1550 ± 129 µM; with PpAChE1 [7], 1150 ± 134 µM; in the assay on PpAChE2 [8], 4500 ± 319 µM; in the assay with PpAChE3 [9], 504 ± 86.8 µM; with PpAChE4 [10] it was 279 ± 35.2 µM. The Vmax at PpAChE5 [6] is given as 59.0 ± 7.2 cd nmol/mg·min; in the assay with PpAChE1 [7] it was 76.2 ± 9.2 c nmol/mg·min; in the assay with PpAChE2 [8], 156.8 ± 21.3 a nmol/mg·min; with PpAChE3 [9] it was 106.2 ± 15.1 b nmol/mg·min; in the assay on PpAChE4 [10] it was 49.7 ± 8.4 d nmol/mg·min.

`CCCC(=O)SCC[N+](C)(C)C.[I-]` [BTC, butyrylthiocholine iodide]: the “Vmax Ratio BTC vs. BTC” value at PpAChE5 [6] (PpAChE5) is reported as 1.55; in the assay on PpAChE1 [7] (PpAChE1) it was 1.25; in the assay with PpAChE2 [8] (PpAChE2) it was 1.49; in the assay with PpAChE4 [10] (PpAChE4) it was 2.12. Besides, the Km was 1530 ± 118 µM at PpAChE5 [6]; 859 ± 103 µM in the assay with PpAChE1 [7]; 4540 ± 326 µM in the assay on PpAChE2 [8]; 199 ± 22.3 µM in the assay with PpAChE3 [9]; 269 ± 35.5 µM with PpAChE4 [10]. The Vmax at PpAChE5 [6] was 91.6 ± 11.3 b nmol/mg·min; in the assay with PpAChE1 [7], 95.4 ± 12.8 b nmol/mg·min; in the assay with PpAChE2 [8], 233.9 ± 16.5 a nmol/mg·min; with PpAChE3 [9] it was 40.3 ± 5.6 c nmol/mg·min; in the assay with PpAChE4 [10], 105.5 ± 8.9 b nmol/mg·min.

With `CC(=O)SCC[N+](C)(C)C.[I-]` [ATC, acetylthiocholine iodide], the “Vmax Ratio ATC vs. BTC” value on PpAChE5 [6] (PpAChE5) is 4.6 and 4.68; in the assay with PpAChE1 [7] (PpAChE1), 1.18; in the assay with PpAChE2 [8] (PpAChE2), 1.09; in the assay on PpAChE3 [9] (PpAChE3) it was 3.09; in the assay on PpAChE4 [10] (PpAChE4) it was 0.82. For the same compound, the “Vmax Ratio ATC vs. PTC” value at PpAChE5 [6] (PpAChE5) is 7.2 and 7.26; in the assay with PpAChE1 [7] (PpAChE1), 1.48; with PpAChE2 [8] (PpAChE2), 1.62; in the assay on PpAChE3 [9] (PpAChE3), 1.17; with PpAChE4 [10] (PpAChE4), 1.74. Further, the Michaelis-Menten constant (Km) was 1300 ± 163 µM on PpAChE5 [6]; 537 ± 63.4 µM with PpAChE1 [7]; 4410 ± 534 µM in the assay with PpAChE2 [8]; 42.9 ± 5.8 µM in the assay on PpAChE3 [9]; 61.6 ± 7.5 µM in the assay on PpAChE4 [10]. Further, the Vmax was 428.4 ± 29.2 a nmol/mg·min at PpAChE5 [6]; 112.6 ± 8.8 c nmol/mg·min in the assay with PpAChE1 [7]; 253.9 ± 20.4 b nmol/mg·min with PpAChE2 [8]; 124.7 ± 11.5 c nmol/mg·min in the assay with PpAChE3 [9]; 86.6 ± 9.7 d nmol/mg·min in the assay on PpAChE4 [10].

In the case of `CNC(=O)Oc1ccc2c(c1)[C@]1(C)CCN(C)[C@@H]1N2C` [Eserine, eserine], on PpAChE5 [1] (in words), the “inhibition on ATC hydrolysis activity of PpAChE5” value was “strong inhibition”. Moreover, the IC50 was 1160 ± 157 nM at PpAChE5 [1] (PpAChE5, on ATC hydrolysis); 117 ± 20.6 nM in the assay on PpAChE1 [2] (PpAChE1, on ATC hydrolysis); 1860 ± 251 nM in the assay on PpAChE2 [3] (PpAChE2, on ATC hydrolysis); 65.2 ± 18 nM in the assay on PpAChE3 [4] (PpAChE3, on ATC hydrolysis); 245 ± 39.4 nM with PpAChE4 [5] (PpAChE4, on ATC hydrolysis). Also, the ki at PpAChE5 [11] is reported as 6.24 ± 1.72 b ×10^−7M^−1min^−1.
